Reference: patent US7119071B2, “Amino terminal substance P compositions and methods for using the same” (University of Medicine and Dentistry of New Jersey, priority 2002, dated 2006)

Experiments:
Assay type in all cases: cell-based, human
CFU-GM = experiment: Clonogenic assay for CFU-GM in sera-free cultures; settings: n=7
Description: BM aspirate was obtained from the posterior iliac crest of normal healthy volunteers. Mononuclear cells were isolated by Ficoll-Hypaque density gradient and then assayed for CFU-GM in sera-free cultures as described^3. Briefly, 10^5 BM mononuclear cells/ml were plated in methylcellulose with 10 or 1 nM of SP(1-4). Each experimental point was assayed in duplicate. Cultures were assayed in parallel in the presence or absence of anti-TGF-β or anti-TNF-α, each ranging between 2 μg/ml and 10 ng/ml. Cultures contained 3 U/ml of rhGM-CSF. At day 10, the number of colonies with >20 cells were counted.

TGF-β in BM stroma = experiment: Induction of TGF-β in BM stroma (CCL 64 growth inhibition bioassay); settings: for TGF-β (pg/ml) 1st stimulation: BM stroma, 16 h, secreted and cell-bound, mean±SD; for TGF-β (pg/ml) 1st stimulation / TGF-β (pg/ml) 2nd stimulation: 10 nM SP(1-4) or 10 ng/ml SCF; for TGF-β (pg/ml) 2nd stimulation: BM stroma re-stimulated for 16 h after 16 h 1st stimulation
Description: (§1) Stromal cultures were prepared with BM aspirates from healthy donors as described^24. Briefly, stromal cells were cultured at 33° C. and at day 3, the granulocytes and red blood cells were removed by Ficoll-Hypaque density gradient. Cultures were reincubated with weekly replacement of 50% culture media until confluence. Cytokine, NK receptor and c-kit expressions were studied in confluent stroma, stimulated with 10 nM SP(1-4) and/or 10 ng/ml SCF. Stroma was stimulated in 3 ml sera-free cc-MEM, supplemented with insulin-transferring-selenium-A (Life Technologies, Grand Island, N.Y.). At 16 h, stromal monolayers were washed with sera-free α-MEM and then re-incubated for 16 h with media, 10 nM SP(1-4) or 10 ng/ml SCF. Controls included stroma cultured for 16 h or 32 h in media alone. Time-course and dose-response curves established the optimal concentrations of SCF and SP(1-4).
Growth inhibition of CCL 64 cells forms the basis of the bioassay used to quantitate active TGF-β^25. Each sample was tested in triplicate with […] of supernatants. TGF-β levels were determined from a standard curve established with TGF-β concentrations ranging from 0.001 to 10 ng/ml vs. cell concentration. The presence of TGF-β1 was verified by reanalyses of samples containing >20 ng/ml TGF-β with neutralizing anti-hTGF-β1^25. Neutralization was determined if the anti-TGF-β1 reversed the growth inhibitory effect of the supernatants. • 1. Biopanning of Phage Display Library and Selection of Clones
BM stroma was stimulated with 10 nM SP(1-4) or 10 ng/ml SCF (1st stimulation). After 16 h, cells were harvested or cultures were re-stimulated for 16 h (2nd stimulation) with 10 nM SP(1-4) or 10 ng/ml SCF. TGF-β and TNF-α levels were determined in the total volume of supernatants and cell extracts, obtained from one flask of stromal cells. The results are represented as the mean±SD of the total concentration (secreted and cell-bound/106 stromal cells). p<0.05 vs. unstimulated or SCF.

NK-2 mRNA = experiment: Quantitative RT-PCR for NK-2 mRNA in BM stroma; settings: n=6; for NK-2 mRNA, 1st stimulation: BM stroma, 10 nM SP(1-4) or 10 ng/ml SCF for 16 h, mean±SD; for NK-2 mRNA, 2nd stimulation: BM stroma washed and re-stimulated for 16 h after 16 h 1st stimulation
Description: as §1
(§2) Quantitative RT-PCR for NK-1, NK-2 and β-PPT-I mRNA was performed as described^3, 24. Briefly, 2 μg of total RNA from BM stroma was reverse transcribed and 200 ng cDNA used in PCR reactions with standard DNA at log10 fold dilutions ranging between 10^−2 and 10^−6 attomole/L. PCR products (10 μl) were separated on agarose containing ethidium bromide. The DNA was scanned with a Fluorimager (Molecular Dynamics, Sunnyvale, Calif.) and the densities analyzed with ImageQuant software (Molecular Dynamics, version 5.2). A standard curve was established for each unknown sample: Band densities of unknown/standard DNA vs. Log10 standard DNA concentration. The concentration of the unknown sample was read at the point where the ratio of the unknown and standard were equivalent. Construction of DNA standards was previously described^24. • 1. Immunofluorescence for NK Receptors
(§3) BM stroma was stimulated with 10 nM SP(1-4) or 10 ng/ml SCF for 16 h (1st stimulation). After this, cultures were washed and then re-stimulated further for 16 h with similar concentrations of SP(1-4) or SCF (2nd stimulation). NK-1, NK-2 and β-PPT-I mRNA levels were quantitative by RT-PCR. The results are represented as the mean±SD, n=6. Each experiment was performed with a different BM donor. p<0.05: * vs. unstimulated or SP(1-4). […]: ** vs. unstimulated or SP(1-4).

NK-1 mRNA = experiment: Quantitative RT-PCR for NK-1 mRNA in BM stroma; settings: n=6; for NK-1 mRNA, 1st stimulation: BM stroma, 10 nM SP(1-4) or 10 ng/ml SCF for 16 h, mean±SD; for NK-1 mRNA, 2nd stimulation: BM stroma washed and re-stimulated for 16 h after 16 h 1st stimulation
Description: as §1, §2, §3

β-PPT-I mRNA = experiment: Quantitative RT-PCR for β-PPT-I mRNA in BM stroma; settings: n=6; for β-PPT-I mRNA, 1st stimulation: BM stroma, 10 nM SP(1-4) or 10 ng/ml SCF for 16 h, mean±SD; for β-PPT-I mRNA, 2nd stimulation: BM stroma washed and re-stimulated for 16 h after 16 h 1st stimulation
Description: as §1, §2, §3

NEP mRNA = experiment: Northern analysis of steady state NEP mRNA in BM stroma; settings: 10 ng/ml SCF, FIG. 4A
Description: Northern analyses for steady state NEP and NK-1 mRNA were performed as described^28. For NEP mRNA, stromal cells were stimulated with SCF for 16 h in sera-free α-MEM supplemented with Insulin-Transferring-Selenium-A. At different times after, total RNA was extracted and 10 μg used for northern analyses. Membranes were consecutively hybridized with [α-^32P]-dATP-labeled cDNA probes for NEP and 18S rRNA as described^3. NK-1 mRNA was determined with total RNA from stromal cultures that were sequentially stimulated with SCF and SP(1-4), described above. The cDNA for NK-1 is previously described^29. NK-2 cDNA was prepared by RT-PCR with total RNA from BM stroma as template and the same primers used for quantitative RT-PCR (described above). The NK-2 fragment, which was equivalent to 274 bp was subcloned into pNoTA/T7 (5 Prime→3 Prime, Boulder, Colo.). The cDNA for human NEP sand 18S rRNA were purchased from American Type Culture Collection (Manassas, Va.).
Total RNA from unstimulated and stimulated (10 ng/ml SCF) BM stroma was analyzed for steady state NEP mRNA levels by northern analyses. The results shown in FIG. 4A indicate single bands at the predicted size of 1.8 kb. […] Analyses for SP and SP(1-4) were performed at different times using Ciphergen's ProteinChip Arrays. ELISA determined the levels of SP-IR in the supernatant and cell extracts of the stimulated stroma (5×10^6 stroma). […]

SP-IR = experiment: Competitive ELISA for SP-immunoreactivity (SP-IR) in stimulated BM stroma; settings: 10 ng/ml SCF, 5×10^6 stroma
Description: Competitive ELISA quantitated SP-IR as described^3. Briefly, Immulon 96-well plates (Dynatech Laboratories Inc., Chantilly, Va.) were precoated with streptavidin and then incubated with biotinylated SP (Chiron Mimotopes, Emeryville, Calif.). Equal volumes (50 μl) of unknown samples and optimum rabbit anti-SP were added to quadruplicate wells. Each sample was assayed as undiluted and three serial dilutions. Complexed anti-SP was detected with Alk Phos-conjugated goat anti-rabbit IgG and Sigma 104 phosphatase substrate. SP-IR levels were calculated from a standard curve developed with O.D. at 405 nm vs. 12 serial dilutions of known SP concentrations, ranging from 100 to 0.08 pg/ml.
Total RNA from unstimulated and stimulated (10 ng/ml SCF) BM stroma was analyzed for steady state NEP mRNA levels by northern analyses. The results shown in FIG. 4A indicate single bands at the predicted size of 1.8 kb. […] Analyses for SP and SP(1-4) were performed at different times using Ciphergen's ProteinChip Arrays. ELISA determined the levels of SP-IR in the supernatant and cell extracts of the stimulated stroma (5×10^6 stroma). An affinity protein chip with mobilized anti-SP determined the presence of SP(1-4) in extracts from 48 h-stimulated stroma. […] At 24 h, the total levels of SP-IR (supernatants and cell extracts) in stimulated stroma were 185±8 ng. SP levels were reduced to 12±5 ng at 48 h and to baseline levels (<2 ng) at 72 h (Table 3).

c-kit = experiment: Immunofluorescence for c-kit in BM stroma; settings: 10 ng/ml SCF, 6 h to 24 h, dim in unstimulated stroma
Description: The relative expression of c-kit in BM stroma was determined by immunofluorescence. BM stroma was cultured on coverslips (Fisher Scientific, Springfield, N.J.) and then stimulated with 10 ng/ml of SCF. At different times after cell stimulation, cells were labeled with 50 ng/ml of biotinylated goat anti-c-kit and FITC-avidin. Non-specific binding was determined with biotinylated non-immune goat anti-IgG. Cells were immediately examined on an OlympusProbis microscope (New York/New Jersey Scientific, Inc., Middlebush, N.J.).

NK-1 receptor = experiment: Immunofluorescence for SP-binding sites (NK-1) in BM stroma; settings: 10 ng/ml SCF and/or 10 nM SP(1-4), FIG. 2
Description: (§4) BM stroma was stimulated with 10 ng/ml of SCF. At 24 h, cells were washed and then immediately incubated at 4° C. for 2 h with 200 ng/ml of biotin-SP or biotin-NK-A. After this, cells were labeled with FITC-avidin for 30 min and then examined for fluorescence intensity with an Olympus Provis AX-70 at 480±40 nm/excitation and 535±50 nm/emission. […] The optimal experimental conditions were determined in dose-response and time-course studies. Specificity of binding by SP or NK-A was studied in competition labeling with the pan-tachykinin antagonist, spantide. • 2. TNF-α determination
(§5) Since NK-1 and NK-2 receptors mediated the hematopoietic effects of the tachykinins^5, this section describes the studies and their results designed to further determine the interacting receptor for SP(1-4). Due to the lack of specific antibodies to the human NK-1 and NK-2 receptors, their detection by immunofluorescence was performed with the preferred ligand that was conjugated to biotin: SP for NK-1 and NK-A for NK-2^12. Spantide, a pan-tachykinin antagonist that competes with the ligand for NK receptor binding was used to determine the specificity of binding.

NK-2 receptor = experiment: Immunofluorescence for NK-A-binding sites (NK-2) in BM stroma; settings: 10 ng/ml SCF and/or 10 nM SP(1-4), FIG. 2
Description: as §4, §5

| Substance | percent inhibition on CFU-GM (CFU-GM; 1 nM SP(1-4)) [%] | percent inhibition on CFU-GM (CFU-GM; 10 nM SP(1-4)) [%] | TGF-β, stimulated BM stroma (TGF-β in BM stroma; 1st stimulation, text citing Table 1) [pg] | TGF-β (pg/ml) 1st stimulation (TGF-β in BM stroma) | NK-2 mRNA, 1st stimulation (NK-2 mRNA) | NK-1 mRNA, 1st stimulation (NK-1 mRNA) | β-PPT-I mRNA, 1st stimulation (β-PPT-I mRNA) | steady state NEP mRNA (northern band) (NEP mRNA; 16 h and 24 h) | steady state NEP mRNA (northern band) (NEP mRNA; 48 h) | total levels of SP-IR (supernatants and cell extracts) (SP-IR; 24 h, unstimulated <2 ng) [ng] | total levels of SP-IR (supernatants and cell extracts) (SP-IR; 48 h) [ng] | total levels of SP-IR (supernatants and cell extracts) (SP-IR; 72 h) [ng] | fluorescence intensity of c-kit labeling (c-kit) | NK-1 expression (biotin-SP binding) (NK-1 receptor) | NK-2 expression (biotin-NK-A binding) (NK-2 receptor) | NK-1 mRNA, 2nd stimulation (NK-1 mRNA) | TGF-β (pg/ml) 2nd stimulation (TGF-β in BM stroma) | NK-2 mRNA, 2nd stimulation (NK-2 mRNA) | β-PPT-I mRNA, 2nd stimulation (β-PPT-I mRNA) | TGF-β levels after 2nd stimulation (TGF-β in BM stroma; 1st stimulation SP(1-4), 2nd stimulation 16 h later, text citing Table 1) [pg] |
| --- | --- | --- | --- | --- | --- | --- | --- | --- | --- | --- | --- | --- | --- | --- | --- | --- | --- | --- | --- | --- |
| Arg-Pro-Lys-Pro (RPKP; listed as Homo sapiens) [SP(1-4), tetrapeptide resulting from degradation of SP by endopeptidases such as NEP] | 55±4 | 65±6 | 90 ± 15 | *90 ± 15 pg/ml | **510 ± 15 | <1 molecules/μg total RNA | <1 |  |  |  |  |  |  |  |  |  |  |  |  |  |
| SCF: stem cell factor, hematopoietic stimulator cytokine purchased from R&D Systems |  |  |  | <5 pg/mL | 17 ± 3 | *1550 ± 26 molecules/μg total RNA | 640 ± 15 | Strong bands | no detectable band | 185 ± 8 | 12 ± 5 | < 2 | increased to bright | SP binds to stromal cells | did not bind | 1480±34 molecules/μg total RNA |  |  |  |  |
| SCF→SCF: 1st and 2nd stimulation with 10 ng/ml SCF |  |  |  |  |  |  |  |  |  |  |  |  |  |  |  | *1480 ± 34 molecules/μg total RNA | <5 pg/mL | 10 ± 2 | 45 ± 4 |  |
| SP(1-4)→SP(1-4): 1st and 2nd stimulation with 10 nM SP(1-4) (RPKP; Substance P; UniProt P20366 58-61, looked up, fragment) |  |  |  |  |  |  |  |  |  |  |  |  |  |  |  | <1 molecules/μg total RNA | *64 ± 4 pg/ml | **484 ± 10 | <1 | 64 ± 4 |
